In general, IC50 refers to the concentration that inhibits the measured activity by half.

IC50 data for 23 compounds are collected here from patent US20100113484A1, “TREATING AGENT OF UROPATHY” (ASKA PHARMACEUTICAL CO., LTD., priority 2006, published 2010).

Read-outs that look alike come from different tables or passages of the source. Some results are limits rather than exact numbers.

Assay [1] has as its target T1, human recombinant PDE9 protein (Homo sapiens, UniProt O76083).
T1 construct: made in house; host or cells: COS-1 cells, transient transfection with pcDNA 3.1 (+); supernatant of the homogenate, not purified
The assay can be described thus: Measurement of PDE9-inhibiting activity ([3H]-cGMP hydrolysis). It counts as biochemical. As for the experimental part:
Based on the base sequence of hsPDE9A1 registered with GenBank database (accession No.: AF048837), hsPDE9A1 fragment was amplified by polymerase chain reaction under the following conditions, using the following sequence (Amasham Pharmacia Biotech) as the primer and Human Prostate […] cDNA library (CLONTECH) as the template DNA, with Pfu Turbo DNA polymerase ([…]):
PCR condition: [95° C., 5 min]×1 cycle, [(95° C., 1 min), (58° C., 2 min), (72° C., 3 min)]×25 cycles, [72° C., 10 min]×1 cycle
Thus obtained hsPDE9A1 fragment was given a restricted enzymatic treatment with NheI and NotI, and thereafter inserted into pcDNA 3.1 (+) expression vector (Invitrogen) to let it serve as a human PDE9 expression vector.
Human PDE9 expression vector-transformed Escherichia coli was mass incubated to produce a large amount of human PDE9 expression vector, which was transiently transfected into COS-1 cells, with LIPOFECTAMINE 2000 Reagent (GIBCO). The cells were homogenized in ice-cooled buffer A (40 mmol/L Tris-HCl, pH7.5, 15 mmol/L benzamidine, 15 mmol/L 2-mercaptoethanol, 1 μg/mL Pepstatin A, 1 μg/mL Leupeptin, 5 mmol/L EDTA) and centrifuged at 4° C., 14,000×g for 10 minutes. The supernatant was isolated to provide human recombinant PDE9 protein solution.
This mixed solution was incubated at 30° C. for 30 minutes and the enzymatic reaction of PDE9 was terminated by heating the system in boiling water for 90 seconds. Returning the system to room temperature, 50 μL of Snake venom (SIGMA: 1 mg/mL) was added, followed by 10 minutes' incubation at 30° C., to convert the [^3H]-5′-GMP produced in the previous reaction to [^3H]-guanosine. […] Thereafter [^3H]-guanosine was eluted with 3 mL of 3 mol/L aqueous ammonia and its radiation activity was measured with liquid scintillation counter.
PDE9 inhibition of the tested compound can be calculated by the following formula: […]
From the percent inhibition at various concentration levels of each tested compound, its IC50 value against PDE9 can be determined.

For assay [2], the target named is T2, human recombinant PDE5 protein (Homo sapiens, UniProt O76074).
T2 construct: made in house; host or cells: COS-1 cells, transient transfection with pcDNA 3.1 (+); supernatant of the homogenate, not purified
The assay can be described thus: Measurement of PDE5-inhibiting activity. It counts as biochemical. As to the method: PCR condition: [94° C., 2 min]×1 cycle, [(94° C., 30 sec), (65° C., 30 sec), (68° C., 3 min)]×25 cycles, [68° C., 6 min]×1 cycle
Thus obtained hsPDE5A1 fragment was given a restricted enzymatic treatment with XBaI and EcoRI, and thereafter inserted into pcDNA 3.1 (+) expression vector (Invitrogen) to let it serve as a human PDE5 expression vector.
Human PDE5 expression vector-transformed Escherichia coli was mass incubated to produce a large amount of human PDE5 expression vector, which was transiently transfected into COS-1 cells, with LIPOFECTAMINE 2000 Reagent (GIBCO). The cells were homogenized in ice-cooled buffer A and centrifuged at 4° C., 14,000×g for 10 minutes. The supernatant was isolated to provide human recombinant PDE5 protein solution.

Setting [3] is: Tables A and C, read-out: Inhibiting Activity (IC50 value) PDE9.
The mark [4] stands for this setting: Tables A and C, read-out: Inhibiting Activity (IC50 value) PDE5.
Where [5] appears, read: Table B, read-out: Inhibiting Activity IC50 PDE9.
[6] abbreviates: Table B, read-out: Inhibiting Activity IC50 PDE5.

T1 sequence (O76083 whole entry): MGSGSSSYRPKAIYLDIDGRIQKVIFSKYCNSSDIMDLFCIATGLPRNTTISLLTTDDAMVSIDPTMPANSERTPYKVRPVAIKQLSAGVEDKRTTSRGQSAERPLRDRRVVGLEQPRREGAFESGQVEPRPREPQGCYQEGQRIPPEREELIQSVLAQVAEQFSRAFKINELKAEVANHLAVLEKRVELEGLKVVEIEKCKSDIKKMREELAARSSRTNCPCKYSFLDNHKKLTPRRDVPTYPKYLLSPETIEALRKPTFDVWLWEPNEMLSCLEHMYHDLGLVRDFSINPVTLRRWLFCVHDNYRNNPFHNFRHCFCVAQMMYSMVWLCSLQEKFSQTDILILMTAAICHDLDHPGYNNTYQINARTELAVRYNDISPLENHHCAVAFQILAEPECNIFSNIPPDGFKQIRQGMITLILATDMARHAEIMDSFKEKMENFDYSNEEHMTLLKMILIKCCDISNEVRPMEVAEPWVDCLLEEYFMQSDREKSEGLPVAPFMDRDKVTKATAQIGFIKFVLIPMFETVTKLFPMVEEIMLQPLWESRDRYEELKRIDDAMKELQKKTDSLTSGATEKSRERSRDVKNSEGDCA

As for `Cc1c(C(=O)O)sc2nc(Cc3ccsc3)[nH]c(=S)c12` [A-22, 5-Methyl-2-(thiophen-3-ylmethyl)-4-thioxo-3,4-dihydrothieno-[2,3-d]pyrimidine-6-carboxylic acid], the figures for the IC50 in assay [1] (setting [3]) and in assay [2] (setting [4]) were 9 nM and 1640 nM, respectively.
The matching figures for `Cc1c(C(=O)O)sc2nc(Cc3cccs3)[nH]c(=S)c12` [A-23, 5-Methyl-2-(thiophen-2-ylmethyl)-4-thioxo-3,4-dihydrothieno-[2,3-d]pyrimidine-6-carboxylic acid]: 31 nM and 1540 nM.
The matching figures for `Cc1c(C(=O)O)sc2nc(Cc3ccccc3)[nH]c(=S)c12` [A-24, 2-Benzyl-5-methyl-4-thioxo-3,4-dihydrothieno[2,3-d]-pyrimidine-6-carboxylic acid]: 13 nM and 642 nM.
The matching figures for `Cc1c(C(=O)O)sc2nc(Cc3cccc(Br)c3)[nH]c(=S)c12` [A-25, 2-(3-Bromobenzyl)-5-methyl-4-thioxo-3,4-dihydrothieno-[2,3-d]pyrimidine-6-carboxylic acid]: 11 nM and 712 nM.
Take `Cc1c(C(=O)O)sc2nc(Cc3cccc(C(F)(F)F)c3)[nH]c(=S)c12` [A-27, 5-Methyl-4-thioxo-2-(3-trifluoromethylbenzyl)-3,4-dihydrothieno[2,3-d]pyrimidine-6-carboxylic acid]: the half-inhibitory concentration (IC50) in assay [1] (setting [3]) turned out to be 6 nM; in assay [2] (setting [4]), 3510 nM.
For `Cc1c(C(=O)O)sc2nc(Cc3ccc(Cl)c(Cl)c3)[nH]c(=S)c12` [A-28, 2-(3,4-Dichlorobenzyl)-5-methyl-4-thioxo-3,4-dihydrothieno-[2,3-d]pyrimidine-6-carboxylic acid], in that order: 4 nM and 73 nM.
For `Cc1c(C(=O)O)sc2nc(Cc3ccc(F)c(Cl)c3)[nH]c(=S)c12` [A-29, 2-(3-Chloro-4-fluorobenzyl)-5-methyl-4-thioxo-3,4-dihydrothieno[2,3-d]pyrimidine-6-carboxylic acid], in that order: 7 nM and 495 nM.
For `Cc1c(C(=O)O)sc2nc(CC3=CCCCC3)[nH]c(=S)c12` [A-30, 2-(Cyclohex-1-enylmethyl)-5-methyl-4-thioxo-3,4-dihydrothieno[2,3-d]pyrimidine-6-carboxylic acid], in that order: 48 nM and 70 nM.
`O=C(O)c1cc2c(=S)[nH]c(Cc3ccccc3)nc2s1` [A-32, 2-Benzyl-4-thioxo-3,4-dihydrothieno[2,3-d]pyrimidine-6-carboxylic acid]: the IC50 was 11 nM in assay [1] (setting [3]) and 8870 nM in assay [2] (setting [4]).
The matching figures for `O=C(O)c1cc2c(=S)[nH]c(Cc3ccc(Cl)c(Cl)c3)nc2s1` [A-33, 2-(3,4-Dichlorobenzyl)-4-thioxo-3,4-dihydrothieno[2,3-d]-pyrimidine-6-carboxylic acid]: 5 nM and 721 nM.
`Cc1c(C(=O)O)sc2nc(Cc3ccccc3)[nH]c(=O)c12` [A-34]: the IC50 came to 35 nM in assay [1] (setting [3]) and 10000 nM in assay [2] (setting [4]).
For the compound `O=C(O)c1ccc2c(=O)[nH]c(Cc3cccc(Cl)c3)nc2c1` [B-1, 2-(3-Chlorobenzyl)-4-oxo-3,4-dihydroquinazoline-7-carboxylic acid], the IC50 in assay [1] (setting [5]) is 18 nM; in assay [2] (setting [6]) it was 6210 nM.
For `O=C(O)c1ccc2c(=O)[nH]c(Cc3ccc(Cl)c(Cl)c3)nc2c1` [B-2, 2-(3,4-Dichlorobenzyl)-4-oxo-3,4-dihydroquinazoline-7-carboxylic acid], in that order: 35 nM and 1440 nM.
`CC(C)c1ncc2c(=O)[nH]c3cc(Cl)ccc3n12` [C-1, 7-Chloro-1-isopropylimidazo[1,5-a]quinoxalin-4 (5H)-one]: the IC50 in assay [1] (setting [3]) was 10 nM; in assay [2] (setting [4]) it was 1260 nM.
As for `CC(C)c1ncc2c(=O)[nH]c3cc(C(=O)N(C)C)ccc3n12` [C-2, 1-Isopropyl-N,N-dimethyl-4-oxo-4,5-dihydroimidazo[1,5-a]-quinoxaline-7-carboxamide], the figures for the IC50 in assay [1] (setting [3]) and in assay [2] (setting [4]) were 42 nM and over 10000 nM, respectively.
Turning to `COc1cc2c(cc1C(=O)N(C)C)[nH]c(=O)c1cnc(C3CCCCC3)n12` [C-3, 1-Cyclohexyl-8-methoxy-N,N-dimethyl-4-oxo-4,5-dihydro-imidazo[1,5-a]quinoxaline-7-carboxamide], the IC50 was 1.2 nM in assay [1] (setting [3]) and over 10000 nM in assay [2] (setting [4]).
For `CCOc1cc2c(cc1C(=O)N(C)C)[nH]c(=O)c1cnc(C3CCCCC3)n12` [C-4], in that order: 3.4 nM and over 10000 nM.
The matching figures for `CN(C)C(=O)c1cc2[nH]c(=O)c3cnc(C4CCCCC4)n3c2cc1Cl` [C-5, 8-Chloro-1-cyclohexyl-N,N-dimethyl-4-oxo-4,5-dihydroimidazo-[1,5-a]quinoxaline-7-carboxamide]: 3 nM and over 10000 nM.
The matching figures for `O=C(c1cc2[nH]c(=O)c3cnc(C4CCCCC4)n3c2cc1Cl)N1CCN(CCO)CC1` [C-6, 1-[(8-Chloro-1-cyclohexyl-4-oxo-4,5-dihydroimidazo[1,5-a]-quinoxalin-7-yl)carbonyl]-4-(2-hydroxyethyl)piperazine]: 8 nM and 7540 nM.
`CCc1ccc2c(c1)[nH]c(=O)c1cnc(CCC(=O)O)n12` [C-7, 3-(7-Ethyl-4-oxo-4,5-dihydroimidazo[1,5-a]quinoxalin-1-yl)-propionic acid]: the IC50 was 2 nM in assay [1] (setting [3]) and over 10000 nM in assay [2] (setting [4]).
For `O=C(O)CCc1ncc2c(=O)[nH]c3cc(C(F)(F)F)ccc3n12` [C-8, 3-(4-Oxo-7-trifluoromethyl-4,5-dihydroimidazo[1,5-a]-quinoxalin-1-yl)propionic acid], in that order: 2 nM and 6370 nM.
The matching figures for `O=C(O)CCc1ncc2c(=O)[nH]c3cc(Br)ccc3n12` [C-9, 3-(7-Bromo-4-oxo-4,5-dihydroimidazo[1,5-a]quinoxalin-1-yl)-propionic acid]: 3 nM and 2810 nM.
For `O=C(O)/C=C/c1ccc2c(=O)[nH]c3cc(C(F)(F)F)ccc3n12` [C-10, (E)-3-(4-oxo-7-trifluoromethyl-4,5-dihydropyrrolo[1,2-a]-quinoxalin-1-yl)acrylic acid], in that order: 8 nM and 4560 nM.
